{"source": "paper PMC10459710", "about": "(Viruses, 2023)", "key": {"[1]": {"assay": "CellTiter-Glo cell viability assay in Vero cells", "assay_type": "cell-based, African green monkey", "conditions": "African green monkey, 72 h exposure"}, "HSV-1 [2]": {"test_system": "HSV-1", "assay": "Cytopathic effect", "assay_type": "cell-based, Herpes simplex virus type 1 (strain H129)", "conditions": "for IC50: 48 h; for Selective Index: SI = CC50/IC50, CPE reduction assay, Vero cells"}, "Vero cells": {"test_system": "Vero cells", "assay": "CellTiter-Glo cell viability assay in Vero cells", "assay_type": "cell-based, African green monkey", "conditions": "72 h exposure"}, "[3]": {"assay": "CellTiter-Glo cell viability assay in HepG2 cells", "assay_type": "cell-based", "conditions": "human, 72 h exposure"}, "HSV-2": {"test_system": "HSV-2", "assay": "Anti-HSV-2 activity in Vero cells by plaque assay", "assay_type": "cell-based, Herpes simplex virus type 2 (strain G)", "conditions": "HSV-2, Vero cells"}, "HSV-1 [4]": {"test_system": "HSV-1", "assay": "Time-of-addition assay, HSV-1 in Vero cells, plaque assay readout", "assay_type": "cell-based, Herpes simplex virus type 1 (strain H129)"}, "HSV-1 [5]": {"test_system": "HSV-1", "assay": "BMS treatment during different time periods of the HSV-1 life cycle", "assay_type": "cell-based, Herpes simplex virus type 1 (strain H129)"}, "HSV-1 [6]": {"test_system": "HSV-1", "assay": "Virus entry assay (IFA, anti-ICP5)", "assay_type": "cell-based, Herpes simplex virus type 1 (strain H129)"}, "cyclin B-dependent CDK1": {"test_system": "cyclin B-dependent CDK1", "conditions": "read-out: in vitro IC50; cited from earlier work"}, "HSV-1 [7]": {"test_system": "HSV-1", "assay": "Virus attachment assay (IFA, anti-gD)", "assay_type": "cell-based, Herpes simplex virus type 1 (strain H129)", "conditions": "BMS at 0.5, 5, and 50 µM, 4 °C, MOI 10"}, "HSV-1 [8]": {"test_system": "HSV-1", "assay": "Plaque reduction assay (viral titer in supernatant), HSV-1-infected Vero cells", "assay_type": "cell-based, Herpes simplex virus type 1 (strain H129)", "conditions": "for Viral titer: HSV-1 MOI 0.01, 48 h, supernatant"}, "HSV-1 IE, E, and L genes": {"test_system": "HSV-1 IE, E, and L genes", "assay": "HSV-1 IE, E and L gene expression (qRT-PCR and Western blot) in Vero cells", "assay_type": "cell-based, Herpes simplex virus type 1 (strain H129)"}, "HSV-1 [9]": {"test_system": "HSV-1", "assay": "Plaque reduction assay, HSV-1-infected HepG2 cells", "assay_type": "cell-based, Herpes simplex virus type 1 (strain H129)", "conditions": "Human alphaherpesvirus 1, HSV-1 MOI 0.01, HepG2 cells, 48 h"}, "[10]": {"assay": "CellTiter-Glo cell viability assay in Hela cells", "assay_type": "cell-based", "conditions": "human, 72 h exposure"}, "cycle E-dependent CDK2": {"test_system": "cycle E-dependent CDK2", "conditions": "read-out: in vitro IC50; cited from earlier work"}, "HSV-1 [11]": {"test_system": "HSV-1", "assay": "Plaque reduction assay, HSV-1-infected Hela cells", "assay_type": "cell-based, Herpes simplex virus type 1 (strain H129)", "conditions": "Human alphaherpesvirus 1, HSV-1 MOI 0.01, Hela cells, 48 h"}, "HSV-1 DNA": {"test_system": "HSV-1 DNA", "assay": "Intracellular and virion-associated HSV-1 DNA levels by real-time PCR", "assay_type": "cell-based, Herpes simplex virus type 1 (strain H129)", "conditions": "Vero cells, MOI 0.01, 24 h, qPCR"}, "HCMV": {"test_system": "HCMV", "design": "method as in earlier work", "conditions": "cited from earlier work"}, "[12]": {"conditions": "Human alphaherpesvirus 1, HSV-1 MOI 0.01, Vero cells, CPE reduction, ND = Not detectable, read-out: IC50"}}}
{"compound": "CCN1CCN(Cc2ccc(Nc3ncc(F)c(-c4cc(F)c5nc(C)n(C(C)C)c5c4)n3)nc2)CC1", "note": "[Abemaciclib]", "values": [{"measurement": "CC50 at 72 h", "setting": "[1]", "value": 29.1, "unit": "µM"}]}
{"compound": "Nc1nc2c(ncn2COCCO)c(=O)[nH]1", "note": "[Acyclovir, acyclovir]", "values": [{"measurement": "CC50 at 72 h", "setting": "[1]", "value": "> 100", "unit": "µM"}, {"measurement": "IC50", "setting": "HSV-1 [2]; [12]", "value": 0.42, "unit": "µM"}, {"measurement": "Selective Index", "setting": "HSV-1 [2]", "value": ">238.10"}]}
{"compound": "CC(=O)Nc1cc(Oc2ccc3c(C(=O)Nc4ccc(CN5CCN(C)CC5)c(C(F)(F)F)c4)cccc3c2)ncn1", "note": "[BGG463]", "values": [{"measurement": "CC50", "setting": "Vero cells", "value": 18.5, "unit": "µM"}]}
{"compound": "CCCCOc1c(C(=O)c2c(F)cc(C)cc2F)c[nH]c2nncc1-2", "note": "[BMS-265246]", "values": [{"measurement": "CC50 at 72 h", "setting": "[3]", "value": "> 500", "unit": "µM"}, {"measurement": "Selective Index", "setting": "HSV-2; CC50/IC50", "value": "> 472"}, {"measurement": "IC50", "setting": "HSV-2; Human alphaherpesvirus 2, plaque assay", "value": 1.06, "unit": "µM"}, {"measurement": "production of progeny virions", "setting": "HSV-1 [4]; pretreatment of the cells", "value": "significantly reduced"}, {"measurement": "viral titer reduction", "setting": "HSV-1 [4]; treatment started at 4 or 10 hpi until harvesting", "value": "less than one logarithm"}, {"measurement": "virus production (plaque assay)", "setting": "HSV-1 [5]; 50 μM BMS at 5–10 and 10–15 hpi, MOI 0.1, 30 h of infection", "value": "significantly suppress virus production"}, {"measurement": "transcription of ICP27, ICP8, and gD", "setting": "HSV-1 [5]; 50 μM BMS during 0–5, 5–10, 10–15, or 15–20 hpi, MOI 1, Vero cells", "value": "dramatically suppresses"}, {"measurement": "entry of HSV-1 to Vero cells", "setting": "HSV-1 [6]; BMS at 0.5, 5, and 50 µM, 37 °C 30 min, MOI 10", "value": "did not affect the entry"}, {"measurement": "expression of ICP5 (IFA over 1-4 hpi)", "setting": "HSV-1 [6]; Vero cells, MOI 10, 1, 2, 3, and 4 h at 37 °C", "value": "the expression of ICP5 was prevented"}, {"measurement": "IC50", "setting": "cyclin B-dependent CDK1", "value": 0.006, "unit": "µM"}, {"measurement": "binding of HSV-1 to Vero cells", "setting": "HSV-1 [7]", "value": "did not affect the binding"}, {"measurement": "Viral titer", "setting": "HSV-1 [8]; BMS 0.02 μM", "value": 5.90, "unit": "log10PFU/mL"}, {"measurement": "Viral titer", "setting": "HSV-1 [8]; BMS 0.07 μM", "value": 5.87, "unit": "log10PFU/mL"}, {"measurement": "Viral titer", "setting": "HSV-1 [8]; BMS 0.21 μM", "value": 5.85, "unit": "log10PFU/mL"}, {"measurement": "Viral titer", "setting": "HSV-1 [8]; BMS 0.62 μM", "value": 5.76, "unit": "log10PFU/mL"}, {"measurement": "Viral titer", "setting": "HSV-1 [8]; BMS 1.85 μM", "value": 5.01, "unit": "log10PFU/mL"}, {"measurement": "Viral titer", "setting": "HSV-1 [8]; BMS 5.56 μM", "value": 3.40, "unit": "log10PFU/mL"}, {"measurement": "Viral titer", "setting": "HSV-1 [8]; BMS 16.67 μM", "value": 2.60, "unit": "log10PFU/mL"}, {"measurement": "Viral titer", "setting": "HSV-1 [8]; BMS 50 μM", "value": 2.24, "unit": "log10PFU/mL"}, {"measurement": "IC50", "setting": "HSV-1 [8]; Human alphaherpesvirus 1, HSV-1 MOI 0.01, Vero cells, 48 h, plaque assay", "value": 0.95, "unit": "µM"}, {"measurement": "CC50 at 72 h", "setting": "[1]", "value": "> 500", "unit": "µM"}, {"measurement": "transcripts of the IE gene ICP27, the E gene ICP8, and the L gene gD", "setting": "HSV-1 IE, E, and L genes; MOI 0.01, qRT-PCR at 4, 8, and 20 hpi", "value": "concentration-dependently suppressed"}, {"measurement": "protein levels of ICP4, ICP8, ICP5, and gB", "setting": "HSV-1 IE, E, and L genes; Western blot at 24 hpi", "value": "reduced by BMS concentration-dependently"}, {"measurement": "IC50", "setting": "HSV-1 [9]", "value": 1.03, "unit": "µM"}, {"measurement": "IC50", "setting": "HSV-1 [2]; Human alphaherpesvirus 1, Vero", "value": 0.08, "unit": "µM"}, {"measurement": "Selective Index", "setting": "HSV-1 [2]", "value": ">6250"}, {"measurement": "CC50 at 72 h", "setting": "[10]", "value": 189, "unit": "µM"}, {"measurement": "IC50", "setting": "cycle E-dependent CDK2", "value": 0.009, "unit": "µM"}, {"measurement": "IC50", "setting": "HSV-1 [11]", "value": 0.18, "unit": "µM"}, {"measurement": "intracellular HSV-1 DNA levels", "setting": "HSV-1 DNA; Hirt method", "value": "decreases concentration-dependently"}, {"measurement": "virion-associated HSV-1 viral DNA levels", "setting": "HSV-1 DNA; supernatant", "value": "reduced concentration-dependently"}]}
{"compound": "COC(=O)[C@]1(Cc2ccc(O)c(CC=C(C)C)c2)OC(=O)C(O)=C1c1ccc(O)cc1", "note": "[Butyrolactone I]", "values": [{"measurement": "CC50 at 72 h", "setting": "[1]", "value": 151, "unit": "µM"}]}
{"compound": "CCn1cnc2c(Nc3cccc(Cl)c3)nc(N[C@@H]3CCCC[C@@H]3N)nc21", "note": "[CGP74514A]", "values": [{"measurement": "reduction of HCMV replication compared with untreated controls", "setting": "HCMV", "value": "~ 300 fold"}]}
{"compound": "COc1ccc(CNc2nc(N(CCO)CCO)nc3c2ncn3C(C)C)cc1", "note": "[CVT-313]", "values": [{"measurement": "CC50", "setting": "Vero cells", "value": 6.38, "unit": "µM"}]}
{"compound": "CCc1cnn2c(NCc3ccc[n+]([O-])c3)cc(N3CCCC[C@H]3CCO)nc12", "note": "[Dinaciclib]", "values": [{"measurement": "CC50 at 72 h", "setting": "[1]", "value": 1.13, "unit": "µM"}]}
{"compound": "CN1CC[C@H](c2c(O)cc(O)c3c(=O)cc(-c4ccccc4Cl)oc23)[C@H](O)C1", "note": "[Flavopiridol]", "values": [{"measurement": "CC50 at 72 h", "setting": "[1]", "value": 0.16, "unit": "µM"}]}
{"compound": "COc1ccccc1-c1cc(Nc2cccc(CS(N)(=O)=O)c2)ncn1", "note": "[LDC000067]", "values": [{"measurement": "CC50", "setting": "Vero cells", "value": 14.4, "unit": "µM"}]}
{"compound": "Cc1n[nH]c2ncc(C(=O)N3CCC[C@H]3c3ccc(Cl)cc3)cc12", "note": "[MSC2530818]", "values": [{"measurement": "CC50 at 72 h", "setting": "[1]", "value": 138, "unit": "µM"}, {"measurement": "IC50", "setting": "HSV-1 [2]; [12]", "value": 25, "unit": "µM"}, {"measurement": "Selective Index", "setting": "HSV-1 [2]", "value": 5.54}]}
{"compound": "C=CS(=O)(=O)c1ccc(Nc2nc(OCC3CCCCC3)c3[nH]cnc3n2)cc1", "note": "[NU6300]", "values": [{"measurement": "CC50", "setting": "Vero cells", "value": 13.8, "unit": "µM"}]}
{"compound": "Nc1cc(Nc2ccc(S(N)(=O)=O)cc2)ncn1", "note": "[PNU112455A]", "values": [{"measurement": "CC50", "setting": "Vero cells", "value": 156, "unit": "µM"}]}
{"compound": "CC(C)[C@H](CO)Nc1nc(Nc2ccc(C(=O)O)c(Cl)c2)c2ncn(C(C)C)c2n1", "note": "[Purvalanol B]", "values": [{"measurement": "CC50 at 72 h", "setting": "[1]", "value": 73.5, "unit": "µM"}]}
{"compound": "O=C1NC(=NCc2cccs2)S/C1=C\\c1ccc2ncccc2c1", "note": "[Ro-3306]", "values": [{"measurement": "CC50", "setting": "Vero cells", "value": 14.1, "unit": "µM"}]}
{"compound": "CC[C@H](CO)Nc1nc(NCc2ccccc2)c2ncn(C(C)C)c2n1", "note": "[Seliciclib]", "values": [{"measurement": "CC50 at 72 h", "setting": "[1]", "value": 18.5, "unit": "µM"}]}
{"compound": "CN(C)C/C=C/C(=O)Nc1cccc(C(=O)Nc2cccc(Nc3ncc(Cl)c(-c4c[nH]c5ccccc45)n3)c2)c1", "note": "[THZ2]", "values": [{"measurement": "CC50", "setting": "Vero cells", "value": 0.42, "unit": "µM"}]}
